{"source": "patent US20150366787A1", "about": "“SESBANIA ACULEATA EXTRACTS AND METHODS OF USE” (AVON PRODUCTS, INC., priority 2013, published 2015)", "system": "dorsal forearm skin", "test": "In vivo biopsy (dorsal forearm, histology)", "design": "species or system human", "conditions": "3 weeks semi-occlusion patch, retinol 0.05%", "method": "Healthy female Caucasian subjects aged 30-65, with skin type II or III and mild to moderate photo damage, were treated on the dorsal forearm for 3 weeks (3 consecutive rounds of 5×24 hour) under semi-occlusion patches. Test articles including active ingredients, vehicle controls, and retinol were applied in a randomized allocation on 6 sites on each forearm. The application dose was 2 mg/cm^2. After 3 week treatment, a 2 mm punch biopsy was obtained from each treatment site and fixed in 10% buffered formalin. Tissue samples then embedded in paraffin, sectioned (5 μm thickness), and stained for skin markers after re-hydration. […] Retinol at a active concentration of 0.05% was used a positive control. Retinol use at a 0.05% active concentration in the semi-occlusion patch vehicle formulation yielded a visual score of approximately 0.56 out of a 4 point scale in HE staining (measuring hematoxylin and eosin staining, an indication of viable epidermal thickness and health) with 63.6% of the subjects showing an improvement; a visual score of 0.6 out of a 4 point scale in M-TC staining (Masson's trichrome staining, assessing total mature fiber-forming collagen in the dermis—mainly Collagen I, […] and Collagen V) with 51.6% of the subjects showing an improvement; a visual score of 0.52 out of a 4 point scale for pro-Col (measuring new synthesis of Collagen I by skin fibroblasts in the dermis) with 51.6% of the subjects showing an improvement; and a visual score of 0.57 out of a 4 point scale for HA (measuring level of hyaluronic acid in both dermis and epidermis) with 50% of the subjects showing an improvement.", "key": {"[1]": {"conditions": "out of a 4 point scale, extract 0.33%"}}}
{"smiles": "CC1=C(/C=C/C(C)=C/C=C/C(C)=C/CO)C(C)(C)CCC1", "note": "[Retinol]", "values": [{"measurement": "subjects showing an improvement, HA", "setting": "extract 0.33%", "value": 50, "unit": "%"}, {"measurement": "subjects showing an improvement, HE staining", "setting": "extract 0.33%", "value": 63.6, "unit": "%"}, {"measurement": "subjects showing an improvement, M-TC staining", "setting": "extract 0.33%", "value": 51.6, "unit": "%"}, {"measurement": "subjects showing an improvement, pro-Col", "setting": "extract 0.33%", "value": 51.6, "unit": "%"}, {"measurement": "visual score in HE staining (viable epidermal thickness and health)", "setting": "out of a 4 point scale, 2 mg/cm^2, extract 0.33% (Example 1B ethanol/water extract)", "value": "approximately 0.56"}, {"measurement": "visual score for HA (hyaluronic acid in dermis and epidermis)", "setting": "[1]", "value": 0.57}, {"measurement": "visual score for pro-Col (new synthesis of Collagen I)", "setting": "[1]", "value": 0.52}, {"measurement": "visual score in M-TC staining (total mature fiber-forming collagen in the dermis)", "setting": "[1]", "value": 0.6}]}
